Test results published in publication PMC9019507, “OAT10/SLC22A13 Acts as a Renal Urate Re-Absorber: Clinico-Genetic and Functional Analyses With Pharmacological Impacts” (Frontiers in Pharmacology, 2022).

Key:
URAT1/SLC22A12 [1] = target: T1, URAT1/SLC22A12 (Homo sapiens, UniProt Q96S37); test: inhibition of [[…]-14C]-urate uptake in URAT1-expressing […] cells ([…]); assay type: cell-based
T1 construct: full-length human URAT1 wild-type, EGFP-fused (pEGFP-C1)
T1 sequence (Q96S37 1-553): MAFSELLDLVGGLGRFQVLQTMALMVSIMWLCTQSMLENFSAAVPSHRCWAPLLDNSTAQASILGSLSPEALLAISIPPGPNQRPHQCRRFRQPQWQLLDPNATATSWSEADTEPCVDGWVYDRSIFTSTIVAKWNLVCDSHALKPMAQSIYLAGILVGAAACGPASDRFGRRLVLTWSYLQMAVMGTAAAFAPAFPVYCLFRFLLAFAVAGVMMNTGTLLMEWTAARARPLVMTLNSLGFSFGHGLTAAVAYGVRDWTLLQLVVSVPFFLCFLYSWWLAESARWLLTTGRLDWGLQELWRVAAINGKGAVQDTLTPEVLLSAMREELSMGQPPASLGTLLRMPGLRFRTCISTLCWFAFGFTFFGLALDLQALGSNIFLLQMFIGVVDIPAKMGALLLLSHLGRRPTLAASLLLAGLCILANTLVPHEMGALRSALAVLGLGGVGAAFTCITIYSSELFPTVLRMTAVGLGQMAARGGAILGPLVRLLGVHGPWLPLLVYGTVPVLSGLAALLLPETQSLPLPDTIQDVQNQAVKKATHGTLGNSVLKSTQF

URAT1/SLC22A12 [2] = target: T1, URAT1/SLC22A12; test: cell-based; set-up: species or system 293A; inhibition of [8-14C]-urate uptake by URAT1-expressing 293A cells, concentration-response
Method: Transiently URAT1-expressing 293A cells were subjected to a cell-based urate transport assay, 48 h after transfection. As a transport buffer, Ringer solution, which contains Cl−, or Cl−-free Hanks’ Balanced Salt Solution (HBSS) containing 10 μM [8-14C]-urate was used. […] Data are expressed as the mean ± SD; n = 4.

OAT10/SLC22A13 [3] = target: T2, OAT10/SLC22A13 (Homo sapiens, UniProt Q9Y226); test: cell-based; set-up: full-length human OAT10 wild-type, EGFP-fused (pEGFP-N1); species or system 293A
T2 sequence (Q9Y226 whole entry, the tested form may be a part): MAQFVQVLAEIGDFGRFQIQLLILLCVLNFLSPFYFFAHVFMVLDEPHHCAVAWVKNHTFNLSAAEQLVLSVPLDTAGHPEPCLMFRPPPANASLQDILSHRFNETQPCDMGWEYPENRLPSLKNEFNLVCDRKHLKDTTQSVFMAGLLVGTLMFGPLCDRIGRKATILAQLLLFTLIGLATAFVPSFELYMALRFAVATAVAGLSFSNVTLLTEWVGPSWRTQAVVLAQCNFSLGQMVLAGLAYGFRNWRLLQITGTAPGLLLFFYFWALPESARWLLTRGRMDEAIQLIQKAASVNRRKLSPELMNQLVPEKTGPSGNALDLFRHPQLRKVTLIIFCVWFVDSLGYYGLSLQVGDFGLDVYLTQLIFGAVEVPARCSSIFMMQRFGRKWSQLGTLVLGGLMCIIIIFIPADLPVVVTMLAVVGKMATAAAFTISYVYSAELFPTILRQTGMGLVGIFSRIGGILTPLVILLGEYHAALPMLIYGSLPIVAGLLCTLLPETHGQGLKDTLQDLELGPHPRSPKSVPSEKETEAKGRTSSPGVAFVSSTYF
Method: Calculation of the Half-Maximal Inhibitory Concentration Values  FIGURE 5 Effects of urate-lowering drugs and their reactive metabolites on the urate transport activity of OAT10. (A) OAT10-mediated urate transport activities in the presence or absence of urate-lowering drugs, including their reactive metabolites, at 100 μM or experimentally maximum concentrations (Table 2). AP, allopurinol; OP, oxypurinol; FEB, febuxostat; TOP, topiroxostat; BBR, benzbromarone; 6-OH BBR, 6-hydroxybenzbromarone; DU, dotinurad; LU, lesinurad; PB, probenecid; FF, fenofibrate; LOS, losartan. (B) Comparison of the effects of each compound (10 μM) on the urate transport activities of URAT1 and OAT10. Values are shown as % of vehicle control (only 0.1% dimethyl sulfoxide); data are expressed as the mean ± SD; n = 3–4 (A,B). ^†† p < 0.01 (two-sided t-test). […] The urate transport activities were measured in the presence of each compound at indicated concentrations for 1 min.

URAT1/SLC22A12 [4] = target: T1, URAT1/SLC22A12; test: inhibition of [[…]-14C]-urate uptake in URAT1-expressing […] cells; assay type: cell-based
OAT10/SLC22A13 [5] = target: T2, OAT10/SLC22A13; test: inhibition of [[…]-14C]-urate uptake in OAT10-expressing […] cells; assay type: cell-based
OAT10/SLC22A13 [6] = target: T2, OAT10/SLC22A13; test: concentration-dependent inhibition of [[…]-14C]-urate uptake in OAT10-expressing […] cells; assay type: cell-based

| IC50 (URAT1/SLC22A12 [2]) | IC50 (OAT10/SLC22A13 [3]) | IC50 (URAT1/SLC22A12 [4]) | IC50 (OAT10/SLC22A13 [5]) | SMILES | inhibition of [8-14C]-urate uptake in URAT1-expressing 293A cells (10 μM) (URAT1/SLC22A12 [1]) | IC50 (OAT10/SLC22A13 [6]) |
| --- | --- | --- | --- | --- | --- | --- |
| 0.043 µM | 7.7 µM |  |  | O=C(c1cc(Cl)c(O)c(Cl)c1)N1CS(=O)(=O)c2ccccc21 [DU, dotinurad] | benzbromarone, 6-hydroxybenzbromarone, and dotinurad were more specific to URAT1 than OAT10 |  |
|  |  | 11.9 µM | 2.5 µM | CCCCc1nc(Cl)c(CO)n1Cc1ccc(-c2ccccc2-c2nn[nH]n2)cc1 [LOS, losartan] |  |  |
|  |  |  |  | O=C(O)CSc1nnc(Br)n1-c1ccc(C2CC2)c2ccccc12 [LU, lesinurad] | lesinurad inhibited OAT10 and URAT1 comparably | lesinurad inhibited OAT10 and URAT1 comparably |
